Patent publication US20180325814A1, “CONFECTIONERY FOR ORAL CARE APPLICATIONS” (The Hershey Company, priority 2017, published 2018)

Key:
[1] = in vitro study of arginine, CGP and HPC, enamel microhardness (FIG. 3); design: species or system bovine; conditions: after 10 days of exposure
Source text: The in vitro study used bovine tooth enamel slabs which were polished and then subjected to an initial tooth softening step using lactic acid. An initial microhardness measurement was then made on each enamel specimen. The enamel specimens were subjected to four pH cycles per day, each cycle comprising a thirty-minute acid demineralization step followed by a twenty-minute lozenge remineralization step. Final microhardness measurements were taken on each specimen after 10 days of treatment and after 20 days of treatment. A fluoride dentifrice and a no-lozenge control sample were analyzed according to the same procedure for comparison purposes.
The latter two alternatives, chitosan and biofilm dispersing agents, were ruled out because they lacked approval for food use. Arginine was selected as the leading candidate for further evaluation. A new in vitro study was undertaken to evaluate arginine alone and in combination with CGP and HPC. CGP alone, CGP with HPC and fluoride were also investigated. The testing procedure was substantially the same as the in vitro study for calcium salts.
The height of each bar represents the change in the KHN as calculated by ΔKHN=KHN10-DAY−KHNINITIAL.

[2] = sugar alcohol assessment of salivary flow and time in mouth (FIG. 4); format: in vivo; conditions: test subjects using a mint vs at rest with no mint; preliminary results
Source text: In addition to evaluating additives for their ability to provide tooth strengthening properties, the inventors also investigated a number of sugar alcohols, individually and in combination, for their ability to increase salivary flow and TIM. The investigation included dual layer formulations as well as compressed tablets. Greater salivary flow is desirable to create calcium delivery and increased TIM provides greater delivery time for active ingredients to have an effect. In FIG. 4, the blue bars represent the average salivary flow difference (in ml/min) between test subjects at rest with no mint versus test subjects using a mint. The green bars represent the average dissolution time in seconds/1000.

Row | Molecule | change in enamel microhardness (ΔKHN) [1] | average salivary flow difference [2]
1 | N=C(N)NCCC[C@H](N)C(=O)O [Arginine] | did not produce significant results | –
2 | Cl.N=C(N)NCCC[C@H](N)C(=O)O [arginine HCl] | did not produce significant results | –
3 | OC[C@@H](O)[C@@H](O)CO [erythritol] | – | stimulated salivary flow
4 | calcium glycerophosphate [CGP] | increase in microhardness that was very similar to the sample for fluoride | –
